Test results from patent publication US20220290106A1, “Method for Promoting Cell Proliferation, and Method for Preparing Cell Cluster” (Osaka University, priority 2019, published 2022).

Assays:
[1] = tested on: iPS cell aggregates (iPSCs, D2 strain); experiment: Test Example 1: aggregate culture 1 of iPS cells; format: cell-based
Procedure: iPSC aggregates were cultured under the following culture conditions. FIGS. 1A and 1B show the results. Cell: iPSCs (D2 strain, Np43) Medium: StemFit (registered trademark) A[…] (manufactured by Takara Bio Inc.) Culture vessel: 96 well V-bottom plate (MS-9096V manufactured by Sumitomo Bakelite Co., Ltd.) Cell density: 1316 cells/cm^2 (5×10^2 cells/wells) Culture condition: 37° C., 5% CO2 incubator Amount of medium: 150 μl/well Culture period: 7 clays (Methylglyoxal was added once after the medium was replaced on the 4th day of culture (Day 4).) Medium on Day 0: the above medium containing 10 μM ROCK inhibitor Replacement of medium: 150 μl/well Medium for replacement: the above medium containing no ROCK inhibitor Added reagent: Methylglyoxal Solution (product code: […], 1.17 g/mL, 16.25 M, manufactured by Sigma-Aldrich) Methylglyoxal (MG) concentration: 0, 0.1, 1, 10, 100 mM Imaging: photomicrography on the 4th day of culture (Day 4) (before addition of MG) and the 5th, 6th, and 7th day of culture (Day 5, 6, 7) (after addition of MG) FIGS. 1A and 1B show an example of photomicrographs of iPS cell aggregates before the addition of MG (Day 4) and after the addition of MG (Day 5, 6, 7). FIG. 1B is a partially enlarged view of FIG. 1A

[2] = tested on: MSC aggregates; experiment: Test Example 4: aggregate culture 1 of mesenchymal stem cells, cell proliferation rate; format: cell-based
Procedure: MSC aggregates were cultured under the following culture conditions. The number of cells was counted on Day 4 (before the addition of MG) and on Day 9. Using the resulting number of cells, the cell proliferation rate was obtained from the following formula.
Medium: Mesenchymal Stem Cell Growth Medium 2 (manufactured by Takara Bio Inc.) Culture vessel: Micro-Space Cell Culture Plate (manufactured by Kuraray Co., Ltd), 24 well plate (manufactured by Corning) Culture condition: 37° C., 5% CO2 incubator Amount of medium: 3 mL/well Seeding density: 1.0×10^5 cell/well Culture period: 9 days
(§1) Medium on Day 0: the above medium containing no ROCK inhibitor
Replacement of medium: 1.5 mL/well×3, once every two days (Day 5, 7, 9) Medium for replacement:
(§2) Day 2, 4: the above medium containing no ROCK inhibitor
(§3) Day 5, 7, 9: the above medium containing 10 μM ROCK inhibitor
Added reagent: Methylglyoxal Solution (product code: M0252, 1.17 g/mL, 16.25 M, manufactured by Sigma-Aldrich) Methylglyoxal concentration: 0, 0.0075, 0.01, 0.0125, 0.015, 0.02 mM Addition of MG: MG was added after the medium was replaced on the 4th day of culture (Day 4). MG treatment time: 24 hours
Cell proliferation rate=(the number of cells on Day 9)/(the number of cells on […])

[3] = tested on: MSCs (monolayer culture); experiment: Monolayer culture of MSCs under the conditions of Test Example 4; format: cell-based; details: monolayer culture instead of aggregate culture; presence or absence of MG and ROCK inhibitor
Procedure: Next, MSCs were cultured under the culture conditions of Test Example 4 except that the MSCs were subjected to monolayer culture instead of aggregate culture.

[4] = tested on: MSC cell aggregates; experiment: Test Example 5: aggregate culture 2 of MSCs (MG 20 minutes); format: cell-based; details: MG 1.25-20 mM, treatment time 20 minutes on Day 4, then 10 μM ROCK inhibitor medium; Day 15 vs Day 4
Procedure: MSC aggregates were cultured under the following culture conditions. […] Medium: Mesenchymal Stem Cell Growth Medium 2 (manufactured by Takara Bio Inc.) Culture vessel: Micro-Space Cell Culture Plate (manufactured by Kuraray Co., Ltd), 24 well plate (manufactured by Corning) Culture condition: 37° C., 5% CO2 incubator Amount of medium: 3 mL/well Seeding density: 1.0×10^5 cell/well Culture period: 15 days Medium on Day 0: the above medium containing no ROCK inhibitor Replacement of medium: 1.5 mL/well×3, once every two days Medium for replacement: Day 2: the above medium containing no ROCK inhibitor Day 4, 6, 8, 10, 12, 14: the above medium containing 10 μM ROCK inhibitor Added reagent: Methylglyoxal Solution (product code: […], 1.17 g/mL, 16.25 M, manufactured by Sigma-Aldrich) Methylglyoxal concentration: 0, 1.25, 2.5, 5, 10, 15, 20 mM Addition of MG: MG was added 20 minutes before the medium was replaced on the 4th day of culture (Day 4). MG treatment time: 20 minutes Imaging: Day 4 (before addition of MG) and Day 15

[5] = tested on: iPS cell aggregates (iPSCs, D2 strain); experiment: Test Example 3: aggregate culture 3 of iPSCs (MG 24 hours, then ROCK inhibitor medium); format: cell-based; details: MG 1.25-20 mM, treatment time 24 hours from Day 4, then medium with 10 μM ROCK inhibitor; Day 10 vs Day 4
Procedure: Test Example 3 was performed in the same manner as Test Example 2 (aggregate culture 2 of iPSCs) except that the culture conditions were changed as follows and the procedures shown in FIG. 3 were used. […] Addition of MG: MG was added after the medium was replaced on the 4th day of culture (Day 4). MG treatment time: 24 hours Medium for replacement: Day 4 to 10: the above medium containing 10 μM ROCK inhibitor Day 1 to 3: the above medium containing no ROCK inhibitor

[6] = tested on: HepG2 aggregates; experiment: Test Example 8: aggregate culture of HepG2; format: cell-based, Human; details: MG 1-20 mM for 24 hours from Day 3, then 10 μM ROCK inhibitor medium
Procedure: HepG2 aggregates were cultured under the following culture conditions. The number of cells was counted on Day 3 (before the addition of MG) and on Day 4, and the cell proliferation rate was confirmed.
Medium: HepG2 Hepatocellular Carcinoma Expansion Media, Human (Cellular Engineering Technologies)
Culture vessel: 24 well plate (manufactured by Coming) Culture condition: 37° C., 5% CO2 incubator Amount of medium: 0.5 mL/well Culture period: 6 days
as §1
Day 2, 3: the above medium containing no ROCK inhibitor
Day 4, 6: the above medium containing 10 μM ROCK inhibitor
Seeding density: 1.0×10^4 cells/cm^2 Replacement of medium: 0.5 mL/well, once every two days Added reagent: Methylglyoxal Solution (manufactured by Sigma-Aldrich) Methylglyoxal concentration: 0, 1, 5, 10, 15, 20 mM Addition of MG: MG was added after the medium was replaced on the 3rd day of culture (Day 3). MG treatment time: 24 hours

[7] = tested on: MSC cell aggregates; experiment: Test Example 6: aggregate culture 3 of MSCs (MG 24 hours); format: cell-based; details: MG 1.25-20 mM, treatment time 24 hours from Day 4, then 10 μM ROCK inhibitor medium; Day 15 vs Day 4
Procedure: Test Example 6 was performed in the same manner as Test Example 5 (aggregate culture 2 of MSCs) except that the culture conditions were changed as follows. […] Addition of MG: MG was added after the medium was replaced on the 4th day of culture (Day 4). MG treatment time: 24 hours Medium for replacement: Day 2, 4: the above medium containing no ROCK inhibitor Day 5, 7, 9, 11, 13, 15: the above medium containing 10 μM ROCK inhibitor

[8] = tested on: iPS cell aggregates (iPSCs, D2 strain); experiment: Test Example 2: aggregate culture 2 of iPSCs (MG 20 minutes, then ROCK inhibitor medium); format: cell-based; details: MG 1.25-20 mM, treatment time 20 minutes on Day 4, then medium with 10 μM ROCK inhibitor; Day 10 vs Day 4
Procedure: Cell: iPSCs (D2 strain, Np17, feeder less) Medium: StemFit (registered trademark) A[…] (manufactured by Takara Bio Inc.) Culture vessel: 96 well V-bottom plate (MS-9096V manufactured by Sumitomo Bakelite Co., Ltd.) Cell density: 200 cells/well Culture condition: 37° C., 5% CO2 Amount of medium: 150 μl/well Culture period: 10 days and (subculture) 5 days (15 days in total) Medium on Day 0: the above medium containing 10 μM ROCK inhibitor Replacement of medium: 75 μl/well (daily) Medium for replacement: Day 4 to 10: the above medium containing 10 μM ROCK inhibitor Day 1 to 3: the above medium containing no ROCK inhibitor Methylglyoxal concentration: 0, 1.25, 2.5, 5, 10, 15, 20 mM Added reagent: Methylglyoxal Solution (product code: […], 1.17 g/mL, 16.25 M, manufactured by Sigma-Aldrich) Addition of MG: MG was added 20 minutes before the medium was replaced on the 4th day of culture (Day 4). MG treatment time: 20 minutes Imaging: video observation with BicStudio (manufactured by NIKON ENGINEERING CO., LTD.) after addition of MG

[9] = tested on: MSC cell aggregates; experiment: Test Example 7: aggregate culture 4 of MSCs (3-DG or GO); format: cell-based; details: for cell proliferation rate of the MSC cell aggregate: cells counted Day 4 (before treatment) and Day 9, 24 hours treatment, then 10 μM ROCK inhibitor medium; for cell proliferation rate, dependence on concentration: cells counted Day 4 and Day 9, increasing 3-DG/GO concentration; for periphery of the cell aggregate (effect of promoting cell proliferation): treatment time 24 hours from Day 4, then 10 μM ROCK inhibitor medium, Day 9 vs Day 4
Procedure: Test Example 7 was performed in the same manner as Test Example 6 (aggregate culture 3 of MSCs) except that the culture conditions were changed as follows.
as §1
Added reagent: 3-Deoxyglucosone (3-DG) (manufactured by Sigma-Aldrich) • Glyoxal Solution (GO) (manufactured by Sigma-Aldrich) Addition of 3-DG or GO: 3-DG or GO was added after the medium was replaced on the 4th day of culture (Day 4). 3-DG or GO treatment time: 24 hours Medium for replacement:
as §2, §3
Similarly to Test Example 4, the number of cells was counted on Day 4 (before the treatment) and on Day 9, and the cell proliferation rate was confirmed. As a result, the cell proliferation rate of the MSC cell aggregate was increased by culturing the MSC cell aggregate that had been treated with 3-DG or GO, like the MG treatment.

| SMILES | cell binding properties in the periphery of the cell aggregate, dependence on MG concentration ([1]; MG 0.1, 1, 10, 100 mM) | cell binding properties in the periphery of the cell aggregate ([1]; MG 0.1-100 mM added once on Day 4, compared to control not treated with MG) | periphery (outer circumferential portion) of the cell aggregate, fibrillation state ([1]; MG 0.1-100 mM added once on Day 4, photomicrographs Day 5, 6, 7, compared to control not treated with MG) | cell proliferation rate ([2]; MG 0.0075-0.02 mM for 24 hours from Day 4, then 10 μM ROCK inhibitor medium, cell count Day 9, without MG (0 mM) 1.2 times) | cell proliferation rate, medium containing ROCK inhibitor versus medium containing no ROCK inhibitor ([2]; combination of MG and 10 μM ROCK inhibitor compared with MG without ROCK inhibitor) | cell proliferation rate [3] | periphery of the cell aggregate (effect of promoting cell proliferation) [4] | periphery of the cell aggregate (effect of promoting cell proliferation) [5] | periphery of the cell aggregate (effect of promoting cell proliferation) [6] | periphery of the cell aggregate (effect of promoting cell proliferation) [7] | periphery of the cell aggregate (effect of promoting cell proliferation) [8] | cell proliferation rate of the MSC cell aggregate [9] | cell proliferation rate, dependence on concentration [9] | periphery of the cell aggregate (effect of promoting cell proliferation) [9] |
| --- | --- | --- | --- | --- | --- | --- | --- | --- | --- | --- | --- | --- | --- | --- |
| CC(=O)C=O [MG, methylglyoxal] | tended to be further reduced with an increase in the MG concentration | reduced | became non-fibrillated (unraveled) | nearly doubled | higher | did not change significantly | expand slightly | expand slightly | expand slightly | expand slightly | expand slightly |  |  |  |
| O=CC(=O)C[C@H](O)[C@H](O)CO [3-DG, 3-Deoxyglucosone] |  |  |  |  |  |  |  |  |  |  |  | increased | tended to be higher with an increase in the 3-DG/GO concentration | expand slightly |
| O=CC=O [GO, glyoxal] |  |  |  |  |  |  |  |  |  |  |  | increased | tended to be higher with an increase in the 3-DG/GO concentration | expand slightly |
